Article PMC9866218, “Characterization and Chemical Synthesis of Cm39 (α-KTx 4.8): A Scorpion Toxin That Inhibits Voltage-Gated K^+ Channel KV1.2 and Small- and Intermediate-Conductance Ca^2+-Activated K^+ Channels KCa2.2 and KCa3.1” (Toxins, 2023)
Bridge positions count the residues as written; N and C are the ends. Ends that are not written are not given here.

How the values were obtained:
mKCa1.1 = type: cell-based, mice
Source text: We, therefore, aimed at testing the pharmacological activity of sCm39 on a battery of various potassium and sodium ion channels. Among the tested channels were six members of human voltage-gated K^+ (hKV) channels from Shaker family, hKV1.1-hKV1.6 (Figure 3A–F) and three members of Ca^2+-activated potassium channel; hKCa2.2 (SK2, Figure 3I), the small-conductance Ca^2+-activated channel; hKCa3.1 (IKCa1, SK4. Figure 3J), the intermediate-conductance Ca^2+-activated channel expressed in T lymphocytes; and mKCa1.1 (BK, Slo1, MaxiK, Figure 3H), the large-conductance voltage- and Ca^2+-activated channel of mice. In addition, we also screened the effect of Cm39 on hKV11.1 (hERG1, Figure 3G), a voltage-gated cardiac K^+ channel, and two human voltage-gated sodium (hNaV) channels, hNaV1.4 (Figure 3K) and hNaV1.5 (Figure 3L), expressed in skeletal and cardiac muscles, respectively. These ion channels were heterologously expressed in the CHO or HEK cell lines except for KV1.3. Human peripheral T lymphocytes. They were stimulated with Phytohemagglutinin A (PHA) to increase the KV1.3 channel expression, and Ca^2+-free intracellular solution was used to avoid KCa3.1 channel activation. Appropriate depolarization protocols were used to record ionic currents in voltage-clamped cells (see Figure 3 insets and Material and Methods for details). Freshly dissolved sCm39 in extracellular solution was applied at 1 µM concentration on the cell using a custom-built micro-perfusion system at ~200 µL/min flow rate. […]
Whole-cell currents were recorded in voltage-clamped cells following standard protocols by using a Multiclamp 700B amplifier connected to a computer with Axon Digidata1440 digitizer and for data acquisition, Clampex 10.7 software was used (Molecular Devices). […]

hKV1.1 = type: cell-based, human
Source text: (§1) We, therefore, aimed at testing the pharmacological activity of sCm39 on a battery of various potassium and sodium ion channels. Among the tested channels were six members of human voltage-gated K^+ (hKV) channels from Shaker family, hKV1.1-hKV1.6 (Figure 3A–F) and three members of Ca^2+-activated potassium channel; hKCa2.2 (SK2, Figure 3I), the small-conductance Ca^2+-activated channel; hKCa3.1 (IKCa1, SK4. Figure 3J), the intermediate-conductance Ca^2+-activated channel expressed in T lymphocytes; and mKCa1.1 (BK, Slo1, MaxiK, Figure 3H), the large-conductance voltage- and Ca^2+-activated channel of mice. In addition, we also screened the effect of Cm39 on hKV11.1 (hERG1, Figure 3G), a voltage-gated cardiac K^+ channel, and two human voltage-gated sodium (hNaV) channels, hNaV1.4 (Figure 3K) and hNaV1.5 (Figure 3L), expressed in skeletal and cardiac muscles, respectively. These ion channels were heterologously expressed in the CHO or HEK cell lines except for KV1.3. Human peripheral T lymphocytes. They were stimulated with Phytohemagglutinin A (PHA) to increase the KV1.3 channel expression, and Ca^2+-free intracellular solution was used to avoid KCa3.1 channel activation. Appropriate depolarization protocols were used to record ionic currents in voltage-clamped cells (see Figure 3 insets and Material and Methods for details). Freshly dissolved sCm39 in extracellular solution was applied at 1 µM concentration on the cell using a custom-built micro-perfusion system at ~200 µL/min flow rate.
(§2) Chinese hamster ovary (CHO) cells (gift from Yosef Yarden, Weizmann Institute of Science, Rehovot, Israel) were maintained by culturing in Dulbecco’s modified Eagle medium (DMEM, Gibco) supplemented with 2 mM L-glutamine, 10% FBS, 100 µg/mL streptomycin and 100 U/mL penicillin-g (Sigma-Aldrich) at a density of 0. 5−1×10^6 cells per mL in a humidified incubator at 37 °C and 5% CO2. Cells were passaged 3 times in a week following a 2–5 min incubation in 0.05% trypsin-EDTA solution at 37 °C. Cultures were used up to passage number 20. PCR-based tests were routinely used to detect mycoplasma infection, only mycoplasma-free cultures were used for experiments.
(§3) Those plasmids which lack a fluorescent tag were co-transfected with a plasmid encoding GFP. Transfections were performed at a GFP:channel DNA molar ratio of 1:10 using the Lipofectamine 2000 kit (Invitrogen) according to the manufacturer’s protocol. […] Generally, currents were recorded 24 to 48 h post transfection.
(§4) For the measurement of KV1.x, mKCa1.1 and NaV1.x currents the extracellular solution was composed of (in mM) 145 NaCl, 5 KCl, 2.5 CaCl2, 1 MgCl2, 10 HEPES and 5.5 glucose, pH 7.35. In the HK-150 and Na^+-free bath solution bath all Na^+ was substituted by K^+ or Choline-Cl, respectively, other ingredients remained unchanged. In the various TEA^+-containing solutions, Na^+ was substituted by tetraethylammonium-Cl in equimolar concentration (Figure 3). The bath solution for KCa2.2 and KCa3.1 consisted of (in mM) 145 L-Aspartic Na^+ salt, 5 KCl, 2.5 CaCl2, 1 MgCl2, 5.5 glucose and 10 HEPES, pH 7.4 and for KV11.1 (in mM) 140 Choline-Cl, 5 KCl, 2 MgCl2, 2 CaCl2, 10 HEPES, 20 glucose and 0.1 CdCl2, pH 7.35. The osmolarity of bath solutions was ranging between 302 to 308 mOsm/L. A total of 0.1 mg/mL bovine serum albumin (BSA, Sigma-Aldrich, Budapest, Hungary) was added to all the bath solutions before the patch-clamp assay to avoid toxin adsorption to the plastic surfaces of the perfusion system. Internal or pipette solution for recording KV1.x and mKCa1.1 currents consisted of (in mM) 140 KF, 2 MgCl2, 1 CaCl2, 11 EGTA and 10 HEPES, pH 7.22.

hKV1.6 = type: cell-based, human
Source text: as §1, §2, §3, §4

hKV1.3 = type: cell-based, human
Source text: as §1
For the measurement of KV1.x, mKCa1.1 and NaV1.x currents the extracellular solution was composed of (in mM) 145 NaCl, 5 KCl, 2.5 CaCl2, 1 MgCl2, 10 HEPES and 5.5 glucose, pH 7.35. In the HK-150 and Na^+-free bath solution bath all Na^+ was substituted by K^+ or Choline-Cl, respectively, other ingredients remained unchanged. […]
Whole-cell currents were recorded in voltage-clamped cells following standard protocols by using a Multiclamp 700B amplifier connected to a computer with Axon Digidata1440 digitizer and for data acquisition, Clampex 10.7 software was used (Molecular Devices).

KV1.2 = settings: cited from earlier work
Source text: (§5) Most of the peptides in subfamily 4 are very similar (percentage identity ranging from 78 to 97%) and share common pharmacological targets, including KV1.3, KV1.2 and KCa channels. […] Not all subfamily 4 toxins have been tested on the KV1.3 channel, but for those that were te ...

[1] = tested on: several KV1.x channel subtypes and Ca^2+-activated channels; settings: high affinity; cited from earlier work
Source text: To date, a number of scorpion-derived peptide toxins are known to block K^+ channels with great affinity. However, these native toxins target more than one channel which compromises their therapeutic use in the management of channelopathies.

hKV1.2 = target: T1, hKV1.2 (Homo sapiens, UniProt P16389); assay: Whole-cell patch-clamp, block of KV1.2 current; type: cell-based; settings: fully reversible blocker as positive control
T1 construct: GFP (vector pCMV6-AC-GFP); host or cells: CHO cells, transient transfection
T1 sequence (P16389 whole entry): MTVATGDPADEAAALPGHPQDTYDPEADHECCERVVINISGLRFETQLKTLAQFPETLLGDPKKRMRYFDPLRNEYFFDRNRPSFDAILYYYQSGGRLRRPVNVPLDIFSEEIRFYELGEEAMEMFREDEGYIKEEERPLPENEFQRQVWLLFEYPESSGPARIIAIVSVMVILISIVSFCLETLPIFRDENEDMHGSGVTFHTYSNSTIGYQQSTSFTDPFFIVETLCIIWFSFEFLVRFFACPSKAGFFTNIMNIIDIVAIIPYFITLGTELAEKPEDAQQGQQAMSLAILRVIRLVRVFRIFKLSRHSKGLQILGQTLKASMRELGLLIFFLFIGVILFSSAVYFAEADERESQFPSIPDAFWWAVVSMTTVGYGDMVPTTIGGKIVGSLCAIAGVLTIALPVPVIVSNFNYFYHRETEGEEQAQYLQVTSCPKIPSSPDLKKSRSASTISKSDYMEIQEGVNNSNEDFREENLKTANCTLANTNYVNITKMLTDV
Source text: as §1
For comprehensive characterization of Cm39 activity on KV1.2, we determined the concentration–response of current inhibition by Cm39, the kinetic parameters of its binding and assessed the effect on voltage dependence of steady-state activation. The whole-cell KV1.2 currents were recorded in CHO cells using depolarization pulses to +50mV from −120mV holding potential (Vh) every 15 s. Since the activation kinetics of KV1.2 are highly variable, the duration of pulses was set on a cell-by-cell basis between 15–300 ms to allocate sufficient time for reaching maximum currents at the test potentials. […] The remaining current fractions (RCF = I/I0, where I0 is the peak current in the absence of the toxin, and I is the peak current at equilibrium block in the presence of sCm39 at a given concentration) were calculated and plotted as a function of toxin concentration.
Single-exponential decay functions were fitted to the normalized peak currents in the presence of each sCm39 concentration (Figure 4C, data points in red shades) to determine the time constant for the onset of block (τon, wash-in or association time constant). The dissociation time constant for the relief from block (τoff, wash-out time constant) was obtained by fitting a single-exponential rising function to the normalized peak currents in the wash-out procedure (Figure 4C, data point in black empty circles). Assuming a simple bimolecular interaction between the toxin and the channel, time constants for the onset and recovery from the block can be stated as follows:(1) τon=1/kon×[toxin]+koff , τoff=1/koff where kon represents the second-order association rate constant, koff indicates the first-order dissociation rate constant and [toxin] is the sCm39 concentration. […] The second-order rate constant of association (kon) was determined by fitting the 1/τon data points using linear regression with koff as the y-intercept.

KV1.3 = settings: cited from earlier work
Source text: Most of the peptides in subfamily 4 are very similar (percentage identity ranging from 78 to 97%) and share common pharmacological targets, including KV1.3, KV1.2 and KCa channels. […] Not all subfamily 4 toxins have been tested on the KV1.3 channel, but for those that were te ... || Generally, scorpion toxins interact at two different regions of KV channels to modify their function. Typical functional dyad (lysine and tyrosine) bearing toxins bind to the extracellular vestibule in such a way that lysine goes deep into selectivity filter, thereby plugging the pore of the channel. Other toxins interact with the voltage-sensing domain (VSD) causing the significant change in gating of the channel.

KCa3.1 channel = settings: cited from earlier work
Source text: as §5, with “... || To date, a number of scorpion-derived peptide toxins are known to block K^+ channels with great affinity. However, these native toxins target more than one channel which compromises their therapeutic use in the management of channelopathies.” for “...”

KCa2.2 channel = settings: cited from earlier work
Source text: as §5, with “... || To date, a number of scorpion-derived peptide toxins are known to block K^+ channels with great affinity. However, these native toxins target more than one channel which compromises their therapeutic use in the management of channelopathies.” for “...”

**Q.** What does the source list for `CC[N+](CC)(CC)CC` [TEA^+, tetraethylammonium chloride, reference compound]?
**A.** current response to positive control (mKCa1.1): decrease in the current; current response to positive control (hKV1.1): decrease in the current; current response to positive control (hKV1.6): decrease in the current; current response to positive control (hKV1.3): decrease in the current

**Q.** For ChTx, which “effect on KV1.2” value (KV1.2) is on record?
**A.** shows effects

**Q.** What about the affinity range [1] of the same compound?
**A.** picomolar to nanomolar

**Q.** And the “current response to positive control” value (hKV1.2)?
**A.** decrease in the current

**Q.** And the “effect on KV1.3” value (KV1.3)?
**A.** shows effects

**Q.** And the Kd (KCa3.1 channel)?
**A.** 5 nM

**Q.** With “Leiurotoxin I: isolated from Leiurus quinquestriatus hebraeus (AFCNLRMCQLSCRSLGLLGKCIGDKCECVKH; UniProt P16341 1-31, looked up)” as the compound, how does the “inhibition of KCa2.x subtypes” value (KCa2.2 channel; small-conductance Ca^2+-activated potassium channel KCa2.x subtypes) read?
**A.** potent inhibitor

**Q.** With “MgTx (TIINVKCTSPKQCLPPCKAQFGQSAGAKCMNGKCKCYPH; UniProt P40755 1-39, looked up)” as the compound, how does the affinity range [1] read?
**A.** picomolar to nanomolar

**Q.** With “apamin (CNCKAPETALCARRCQQH-NH2; disulfide 1-11, 3-15; ends not checked; UniProt P01500 28-45, looked up)” as the compound, how does the “blocking effect on KCa2 (small-conductance K^+ channel, SK)” value (KCa2.2 channel) read?
**A.** picomolar range
